Patent US20240050465A1, “HYDROGEN WATER FOR PREVENTION OF ALCOHOLIC HEPATOPATHY” (NIHON TRIM CO., LTD., priority 2021, published 2024)
Read-outs that look alike come from different tables or passages of the source.

Tested on: HepG2 cells
Conditions: 24 hours; for Cell viability: vs 0% ethanol
Description: A HepG2 cell line, which is human liver cancer-derived cells, was obtained from Riken Bioresource Research Center (RIKEN BRC) and cultured in DMEM containing 10% fetal bovine serum (FBS) (Sigma-Aldrich, F7524) and 1% penicillin-streptomycin (manufactured by FUJIFILM Wako Pure Chemical Corporation, trade name: 168-23191) under conditions of 37° C. and 5% CO2.

## CCO [Ethanol, ethanol]
HepG2, ethanol 0.25%
  Viable cell count: 9.48 × 10^4 cells/well
  Cell viability: 96.7%
HepG2, ethanol 0.5%
  Viable cell count: 9.37 × 10^4 cells/well
  Cell viability: 95.6%
HepG2, ethanol 1%
  Viable cell count: 8.22 × 10^4 cells/well
  Cell viability: 83.8%
HepG2, ethanol 2%
  Viable cell count: 6.05 × 10^4 cells/well
  Cell viability: 61.7%
HepG2, ethanol 4%
  Viable cell count: 4.87 × 10^4 cells/well
  Cell viability: 49.7%
HepG2, ethanol 8%
  Viable cell count: 0.35 × 10^4 cells/well
  Cell viability: 3.6%
